Assay results as given in the NIST ThermoML archive (doi:10.1021/acs.jced.9b00278).
± gives the expanded uncertainty stated by the source.

Conditions: DSC

- Triple point temperature (Crystal 1): 410.95 ± 2.1 K
- Triple point temperature (Metastable crystal): 409.15 ± 2.1 K
Compound: O=C(O)c1ccccc1Nc1cccc(C(F)(F)F)c1 [2-[[3-(trifluoromethyl)phenyl]amino]benzoic acid]
